The values below come from article PMC4076014 (ACS chemical biology, 2014).

Data set [1] has as its system human dermal fibroblasts. In words: Cellular inositol lipid levels, 3H-myo-inositol labeling and HPLC. The format is cell-based. To be noted: 50 μM, 1 hour treatment.
The target of data set [2] is catalytic domain of human INPP5B (Homo sapiens, UniProt P32019). In words: Isothermal titration calorimetry. It is filed as binding.
In data set [3] the target is INPP5B catalytic domain (Homo sapiens, UniProt P32019). In words: Malachite green assay with IP3 substrate, dose response. It is filed as biochemical.
For data set [4], the system named is 5-phosphatase domain of human OCRL in COS-7 cells. The data set is described as follows: Optogenetic in situ phosphatase assay. The format is cell-based. Conditions: 50 μM, COS-7, n=14 cells, P<0.001 vs DMSO control.
The target of data set [5] is T1, INPP5E (Homo sapiens, UniProt Q9NRR6).
T1 sequence (Q9NRR6 294-598 limits assumed): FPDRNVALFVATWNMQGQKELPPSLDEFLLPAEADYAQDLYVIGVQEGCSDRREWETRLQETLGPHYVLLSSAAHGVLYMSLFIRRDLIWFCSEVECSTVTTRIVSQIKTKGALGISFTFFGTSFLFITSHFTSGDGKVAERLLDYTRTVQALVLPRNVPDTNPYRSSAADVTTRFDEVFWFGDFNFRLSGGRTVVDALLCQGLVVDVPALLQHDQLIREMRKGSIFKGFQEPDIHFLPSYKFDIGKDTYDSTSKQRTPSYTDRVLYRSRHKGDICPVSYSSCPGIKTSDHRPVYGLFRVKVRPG
In words: Fluorescence polarization. It is filed as biochemical. A general note: In fluorescence polarisation assays a small probe gives low polarisation when free and higher when bound to something large.

Data set [6] concerns the target T2, INPP5B (Homo sapiens, UniProt P32019). The data set is described as follows: biochemical.
In data set [7] the target is T2, INPP5B. In words: biochemical. This is another data set of the same source.
The target in data set [8] is T3, INPP5A (Homo sapiens, UniProt Q14642).
T3 sequence (Q14642 1-402): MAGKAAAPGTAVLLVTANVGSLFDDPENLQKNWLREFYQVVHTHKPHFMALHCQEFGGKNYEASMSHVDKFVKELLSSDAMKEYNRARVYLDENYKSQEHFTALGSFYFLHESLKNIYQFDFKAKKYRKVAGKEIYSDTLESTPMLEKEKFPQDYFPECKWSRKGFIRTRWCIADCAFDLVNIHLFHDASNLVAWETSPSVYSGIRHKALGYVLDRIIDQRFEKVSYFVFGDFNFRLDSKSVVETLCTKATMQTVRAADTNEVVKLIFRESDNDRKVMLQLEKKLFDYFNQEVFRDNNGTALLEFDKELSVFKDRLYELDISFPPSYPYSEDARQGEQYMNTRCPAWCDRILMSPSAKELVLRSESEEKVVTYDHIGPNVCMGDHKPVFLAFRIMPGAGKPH
In words: Malachite green assay with IP3 substrate, dose response. It is filed as biochemical.

In data set [9] the target is T4, SHIP1 (Mus musculus, UniProt Q9ES52).
T4 sequence (Q9ES52 1-1191): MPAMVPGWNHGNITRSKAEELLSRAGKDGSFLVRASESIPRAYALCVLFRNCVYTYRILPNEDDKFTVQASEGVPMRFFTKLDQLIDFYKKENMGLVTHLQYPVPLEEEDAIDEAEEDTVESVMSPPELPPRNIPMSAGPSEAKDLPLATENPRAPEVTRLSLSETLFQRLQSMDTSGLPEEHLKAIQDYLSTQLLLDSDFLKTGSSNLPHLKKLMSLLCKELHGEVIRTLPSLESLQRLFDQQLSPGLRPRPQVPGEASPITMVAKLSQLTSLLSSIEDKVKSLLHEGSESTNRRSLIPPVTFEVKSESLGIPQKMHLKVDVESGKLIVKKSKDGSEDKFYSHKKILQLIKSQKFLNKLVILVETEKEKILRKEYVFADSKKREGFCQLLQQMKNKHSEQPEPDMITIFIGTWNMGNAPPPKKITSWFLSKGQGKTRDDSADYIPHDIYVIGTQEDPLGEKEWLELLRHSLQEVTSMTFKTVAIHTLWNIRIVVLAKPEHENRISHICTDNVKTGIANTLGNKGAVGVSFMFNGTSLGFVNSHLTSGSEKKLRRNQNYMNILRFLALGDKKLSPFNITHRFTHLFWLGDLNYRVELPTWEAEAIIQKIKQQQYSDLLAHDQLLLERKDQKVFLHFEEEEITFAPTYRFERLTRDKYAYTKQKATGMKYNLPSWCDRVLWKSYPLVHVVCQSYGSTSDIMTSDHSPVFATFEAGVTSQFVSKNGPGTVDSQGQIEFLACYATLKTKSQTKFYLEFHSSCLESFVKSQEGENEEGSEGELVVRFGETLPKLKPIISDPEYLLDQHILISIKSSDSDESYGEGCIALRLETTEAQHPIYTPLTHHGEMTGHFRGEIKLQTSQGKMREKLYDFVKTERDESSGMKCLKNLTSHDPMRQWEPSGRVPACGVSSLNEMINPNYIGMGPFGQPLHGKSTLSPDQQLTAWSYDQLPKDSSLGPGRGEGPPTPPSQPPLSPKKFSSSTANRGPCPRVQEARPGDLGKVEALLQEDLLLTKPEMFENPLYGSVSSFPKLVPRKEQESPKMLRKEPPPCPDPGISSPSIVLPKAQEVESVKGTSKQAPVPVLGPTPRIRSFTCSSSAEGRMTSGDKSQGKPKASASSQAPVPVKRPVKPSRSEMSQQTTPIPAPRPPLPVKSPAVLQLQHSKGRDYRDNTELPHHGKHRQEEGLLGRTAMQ
The data set is described as follows: Fluorescence polarization. The format is biochemical.

Data set [10] deals with Synaptojanin 1 (SJ1) (Homo sapiens, UniProt O43426). In words: Fluorescence polarization. It is filed as biochemical.
Data set [11] deals with cell cultures. Conditions: preliminary experiments / data not shown.

Where two headings read alike, the source gives them in different places. A value given as a limit tells only on which side of the number the result lay.

With `c1cc(-c2nnc3scnn23)ccn1` [YU142670], in data set [1], the “All other phosphoinositide levels measured” value is “remained unchanged”. The “N (stoichiometry, ITC)” value in data set [2] (25°C) stood at 0.9108 ± 0.0547. The “ΔH (ITC)” value in [2] (25°C) is given as −7270 ± 588.6. For the same compound, the “ΔS (ITC)” value in [2] (25°C) was 0.5933. In addition, the “Ka (association constant, ITC)” value in data set [2] (25°C, 500 µM compound into 33 µM INPP5B catalytic domain, 5% DMSO) is 2.352×10^5 ± 8.744×10^4. The figures for the IC50 in data set [3], in data set [5] and in data set [6] were 530 nM, above 70000 nM and 17500 nM, respectively. Moreover, the “Loss (drop) of plasma membrane iRFP-PH-PLCδ1 fluorescence” value in data set [4] came out at 32±3%.

For the compound `COc1cc(-c2nnc3sc(-c4cccs4)nn23)cc(OC)c1OC` [YU142717], the IC50 was 2630 nM in data set [7] and 920 nM in [3].

On to `COc1cc(CN)c(Br)cc1OCc1ccccc1Cl` [YU144118], for which the IC50 was found to be 1810 nM in data set [8]; 8970 nM in [9]; 1100 nM in [3]; 5770 nM in data set [5]; 1300 nM in data set [10].

With `CCOc1cc(CN)cc(Br)c1OCC` [YU144369], the IC50 is 1070 nM in data set [8]; 2520 nM in data set [9]; 570 nM in data set [3]; 2330 nM in [5]; 3630 nM in [10]. Besides, the “Heat of binding to INPP5B catalytic domain (ITC, in words)” value in data set [2] (protein precipitation during the experiment, results inconclusive, data not shown) is listed as “measurable heat of binding”. Also, the “Toxicity on cell cultures” value in data set [11] is recorded as “acute toxicity”.

`CC(C)Oc1c(Cl)cc(CN)cc1Cl` [YU144530]: the IC50 is 1440 nM in [8]; 2890 nM in [9]; 810 nM in [3]; 2800 nM in [5]; above 70000 nM in data set [10].

Broadly, the IC50 is the concentration that gives 50% inhibition. High values mean lower potency, low ones higher potency.
